The target in one series is Fatty acid synthase (Rattus norvegicus, UniProt P12785). The series can be described thus: Inhibition of fatty acid synthase in rat cytosolic hepatic extracts using acetyl CoA and malonyl CoA as substrate preincubated for 30 mins followed by acetyl CoA addition and subsequent incubation for 3 mins prior to malonyl CoA addition measured after 10 mins in presence of NADPH by spectrophotometric method.

The test system of the next series is Fibroblast. The series can be described thus: Antiproliferative activity against fibroblasts (unknown origin) after 72 hrs by MTT assay. The format is cell-based.
For another series, the system named is PC-3. Briefly: Antiproliferative activity against human PC3 cells after 72 hrs by MTT assay. The format is functional, cell-based. To be noted: PC-3, 72 h. A general note: Tetrazolium dyes change colour on reduction, which living cells bring about.
For another series, the system named is OVCAR-3. The series can be described thus: Antiproliferative activity against human OVCAR3 cells after 72 hrs by MTT assay. The format is functional, cell-based. To be noted: OVCAR-3, 72 h.
The subject of the next series is MDA-MB-231. The series can be described thus: Antiproliferative activity against human MDA-MB-231 cells after 72 hrs by MTT assay. The format is functional, cell-based. To be noted: MDA-MB-231, 72 h.
The test system of a further series is SK-BR-3. The series can be described thus: Antiproliferative activity against human SKBR3 cells after 72 hrs by MTT assay. The format is functional, cell-based. To be noted: SK-BR-3, 72 h.
The next series relates to HCT-116. Briefly: Antiproliferative activity against human HCT116 cells after 72 hrs by MTT assay. The format is functional, cell-based. To be noted: HCT-116, 72 h.
Another series relates to MCF7. The series can be described thus: cells. To be noted: Homo sapiens, MCF7, 72 h.
The next series relates to MIA PaCa-2. The series can be described thus: Antiproliferative activity against human MIAPaCa2 cells after 72 hrs by MTT assay. The format is functional, cell-based. To be noted: MIA PaCa-2, 72 h.
The target of series [1] is Ribosomal protein S6 kinase beta-1 (Homo sapiens) (UniProt P23443). Briefly: Inhibition of S6K1 phosphorylation at T389 in human OVCAR3 cells at 29.74 uM after 24 hrs by Western blot analysis. The format is cell-based. (In general: A western blot detects proteins with antibodies after separation by electrophoresis.)
Chain of Ribosomal protein S6 kinase beta-1 (Homo sapiens) (P23443 whole entry, looked up, canonical isoform): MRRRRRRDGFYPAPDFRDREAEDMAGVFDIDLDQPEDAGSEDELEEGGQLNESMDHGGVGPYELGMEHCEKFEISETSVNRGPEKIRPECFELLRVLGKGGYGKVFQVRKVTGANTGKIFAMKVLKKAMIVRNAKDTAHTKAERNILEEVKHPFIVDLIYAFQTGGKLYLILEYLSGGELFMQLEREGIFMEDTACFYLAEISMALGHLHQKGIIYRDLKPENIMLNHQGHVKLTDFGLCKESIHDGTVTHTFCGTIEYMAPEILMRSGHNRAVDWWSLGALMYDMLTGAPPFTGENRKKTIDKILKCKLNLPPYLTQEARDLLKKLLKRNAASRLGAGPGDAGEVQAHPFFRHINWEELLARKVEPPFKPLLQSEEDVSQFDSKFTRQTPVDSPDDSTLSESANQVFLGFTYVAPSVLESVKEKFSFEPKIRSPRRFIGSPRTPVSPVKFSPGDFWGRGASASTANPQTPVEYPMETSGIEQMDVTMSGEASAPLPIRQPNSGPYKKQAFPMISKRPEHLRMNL
The target of series [2] is T1, Carnitine O-palmitoyltransferase 1, liver isoform (Rattus norvegicus, UniProt P32198).
T1 sequence (P32198 whole entry): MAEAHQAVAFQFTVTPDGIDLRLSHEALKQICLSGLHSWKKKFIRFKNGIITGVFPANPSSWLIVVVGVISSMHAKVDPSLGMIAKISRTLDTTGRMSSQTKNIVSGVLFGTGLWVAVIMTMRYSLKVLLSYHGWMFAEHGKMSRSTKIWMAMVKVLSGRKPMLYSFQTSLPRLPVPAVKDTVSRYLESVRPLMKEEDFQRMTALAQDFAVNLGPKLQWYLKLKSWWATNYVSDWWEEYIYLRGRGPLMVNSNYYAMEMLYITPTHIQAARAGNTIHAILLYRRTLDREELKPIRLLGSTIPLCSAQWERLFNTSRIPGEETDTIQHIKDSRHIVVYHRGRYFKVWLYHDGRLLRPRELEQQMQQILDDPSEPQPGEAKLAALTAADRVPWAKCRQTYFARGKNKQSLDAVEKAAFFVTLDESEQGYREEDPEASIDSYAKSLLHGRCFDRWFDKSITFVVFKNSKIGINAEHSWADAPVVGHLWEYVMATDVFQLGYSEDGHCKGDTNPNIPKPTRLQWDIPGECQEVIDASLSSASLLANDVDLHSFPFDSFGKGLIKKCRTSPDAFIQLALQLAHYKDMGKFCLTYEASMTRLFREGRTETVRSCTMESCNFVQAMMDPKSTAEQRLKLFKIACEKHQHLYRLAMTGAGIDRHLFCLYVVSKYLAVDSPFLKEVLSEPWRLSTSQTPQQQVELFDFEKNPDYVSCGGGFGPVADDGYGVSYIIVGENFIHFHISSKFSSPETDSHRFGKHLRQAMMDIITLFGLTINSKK
The series can be described thus: Inhibition of rat wild-type CPT1A expressed in yeast mitochondrial extracts using L-[methyl-3H]carnitine and palmitoyl-CoA as substrates preincubated for 1 min followed by substrate addition measured for 5 mins by radiometric method.

For series [3], the system named is Rattus norvegicus. Briefly: Toxicity in icv dosed Sprague-Dawley rats assessed as decrease in body weight. To be noted: in vivo, icv_or_intrathecal. The format is organism-based.
Series [4] has as its system Mus musculus. The series can be described thus: Toxicity in ip dosed C57/BL6J mouse assessed as decrease in body weight. The format is organism-based. To be noted: in vivo.
Series [5] deals with Mus musculus. The series can be described thus: Toxicity in C57/BL6J mouse assessed as decrease in body weight at 15 mg/kg, ip administered once daily for 3 days measured after 2 days. The format is organism-based. To be noted: in vivo, 48 h.
Series [6] concerns the target Fatty acid synthase (Homo sapiens) (UniProt P49327). To be noted: 8 ug/ml.
Description: Inhibition of fatty acid synthase in human OVCAR3 cells assessed as reduction in fatty acid synthesis at 8 ug/ml pretreated for 2 hrs followed by [U14C]-acetate addition measured after 2 hrs by scintillation counting method relative to control
Series [7] concerns Rattus norvegicus. The series can be described thus: Toxicity in Sprague-Dawley rats assessed as decrease in body weight at 33 mM, icv measured every day for 3 days. To be noted: in vivo, icv_or_intrathecal, 72 h, 33000 µM.
Series [8] concerns Mus musculus. Briefly: Toxicity in C57/BL6J mouse assessed as decrease in food intake at 15 mg/kg, ip administered once daily for 3 days measured after 2 days. The format is organism-based. To be noted: in vivo, 48 h.
The subject of series [9] is Rattus norvegicus. Briefly: Toxicity in Sprague-Dawley rats assessed as decrease in food intake at 30 mM, icv measured after 1 to 22 hrs. To be noted: in vivo, icv_or_intrathecal, 30000 µM.

Active and inactive are the calls of the source. The rule behind the calls is not given here.

Chain of Fatty acid synthase (P12785 whole entry): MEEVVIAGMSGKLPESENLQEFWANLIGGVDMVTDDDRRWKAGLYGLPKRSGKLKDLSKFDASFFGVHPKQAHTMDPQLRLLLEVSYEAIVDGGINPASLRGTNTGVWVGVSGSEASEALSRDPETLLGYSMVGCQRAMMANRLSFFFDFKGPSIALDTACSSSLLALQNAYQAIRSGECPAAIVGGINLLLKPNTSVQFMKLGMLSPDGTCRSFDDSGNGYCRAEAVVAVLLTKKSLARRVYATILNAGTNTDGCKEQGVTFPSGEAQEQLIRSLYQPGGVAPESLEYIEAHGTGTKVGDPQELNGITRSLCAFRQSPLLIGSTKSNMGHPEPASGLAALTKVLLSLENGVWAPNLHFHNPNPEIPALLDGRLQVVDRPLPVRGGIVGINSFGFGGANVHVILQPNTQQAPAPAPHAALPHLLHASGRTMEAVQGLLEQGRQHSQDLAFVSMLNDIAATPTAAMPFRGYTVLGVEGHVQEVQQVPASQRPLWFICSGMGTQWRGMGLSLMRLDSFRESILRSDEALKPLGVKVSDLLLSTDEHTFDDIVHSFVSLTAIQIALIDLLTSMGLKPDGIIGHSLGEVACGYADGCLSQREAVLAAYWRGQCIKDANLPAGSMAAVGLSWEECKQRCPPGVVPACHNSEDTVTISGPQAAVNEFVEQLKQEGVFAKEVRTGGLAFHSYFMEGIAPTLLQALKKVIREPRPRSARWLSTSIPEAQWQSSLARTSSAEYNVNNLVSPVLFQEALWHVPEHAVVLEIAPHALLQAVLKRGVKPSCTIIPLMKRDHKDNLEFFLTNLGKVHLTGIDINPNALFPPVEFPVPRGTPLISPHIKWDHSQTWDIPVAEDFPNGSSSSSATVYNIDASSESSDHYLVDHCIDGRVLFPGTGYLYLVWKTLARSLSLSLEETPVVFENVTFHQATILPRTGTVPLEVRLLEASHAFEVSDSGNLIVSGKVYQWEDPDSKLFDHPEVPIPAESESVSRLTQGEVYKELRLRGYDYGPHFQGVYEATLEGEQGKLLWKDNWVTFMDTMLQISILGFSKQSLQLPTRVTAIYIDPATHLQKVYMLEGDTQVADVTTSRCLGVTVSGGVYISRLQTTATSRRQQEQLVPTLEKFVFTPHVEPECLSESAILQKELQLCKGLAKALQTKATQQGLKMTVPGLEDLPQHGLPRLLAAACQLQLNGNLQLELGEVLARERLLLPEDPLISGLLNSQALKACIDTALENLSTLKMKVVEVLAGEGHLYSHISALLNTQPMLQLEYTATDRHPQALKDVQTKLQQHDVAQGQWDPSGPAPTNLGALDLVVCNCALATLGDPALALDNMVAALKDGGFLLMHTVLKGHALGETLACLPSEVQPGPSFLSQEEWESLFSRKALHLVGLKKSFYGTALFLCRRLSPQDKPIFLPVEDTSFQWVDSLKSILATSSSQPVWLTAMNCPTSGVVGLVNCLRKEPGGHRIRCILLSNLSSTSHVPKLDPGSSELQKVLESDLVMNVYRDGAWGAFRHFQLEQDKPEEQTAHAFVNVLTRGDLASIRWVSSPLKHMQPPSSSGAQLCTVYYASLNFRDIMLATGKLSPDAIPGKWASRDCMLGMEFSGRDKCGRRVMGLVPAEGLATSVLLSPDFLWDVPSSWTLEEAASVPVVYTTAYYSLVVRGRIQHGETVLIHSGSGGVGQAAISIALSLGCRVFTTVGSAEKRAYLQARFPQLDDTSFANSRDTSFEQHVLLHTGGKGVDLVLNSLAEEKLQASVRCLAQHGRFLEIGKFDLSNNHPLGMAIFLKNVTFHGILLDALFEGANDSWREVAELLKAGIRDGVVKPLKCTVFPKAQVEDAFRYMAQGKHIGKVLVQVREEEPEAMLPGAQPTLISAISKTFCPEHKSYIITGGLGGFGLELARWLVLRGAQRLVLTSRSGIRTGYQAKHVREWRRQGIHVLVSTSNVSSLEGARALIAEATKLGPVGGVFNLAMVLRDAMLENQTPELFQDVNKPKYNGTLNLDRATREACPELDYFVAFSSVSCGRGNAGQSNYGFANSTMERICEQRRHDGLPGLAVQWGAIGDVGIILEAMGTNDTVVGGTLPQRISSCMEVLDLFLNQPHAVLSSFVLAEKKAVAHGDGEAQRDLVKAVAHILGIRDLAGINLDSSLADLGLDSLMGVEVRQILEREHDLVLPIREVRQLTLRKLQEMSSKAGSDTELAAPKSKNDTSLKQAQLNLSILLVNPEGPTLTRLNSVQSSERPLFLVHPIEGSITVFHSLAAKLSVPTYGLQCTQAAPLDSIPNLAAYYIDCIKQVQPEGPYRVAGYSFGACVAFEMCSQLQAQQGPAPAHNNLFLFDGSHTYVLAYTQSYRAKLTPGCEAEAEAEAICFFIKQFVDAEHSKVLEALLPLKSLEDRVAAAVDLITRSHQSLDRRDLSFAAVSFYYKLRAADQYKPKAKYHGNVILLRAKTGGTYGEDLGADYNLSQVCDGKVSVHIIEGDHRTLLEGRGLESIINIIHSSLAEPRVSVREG

The term IC50 denotes the concentration that gives 50% inhibition. On to `C=C1C(=O)O[C@@H](CCCCCCCC)[C@@H]1C(=O)O`, for which the 50% inhibitory concentration (IC50) was 440 to 498 µM at Fatty acid synthase; above 117 µM in the series on Fibroblast; 34.3 µM in the series on PC-3; 17.9 µM in the series with OVCAR-3; 57.7 µM in the series with MDA-MB-231; 38.2 µM in the series with SK-BR-3. The IC50 in the series on HCT-116 came out at 74.8 µM; in the series on MCF7, 46.4 µM; in the series on MIA PaCa-2, 25.3 µM.
A word on the inhibition: it is the percentage by which the read-out fell short of the control. Consider `C=C1C(=O)O[C@@H](CCCCCCCC)[C@@H]1CO`, for which the inhibition result in series [1] is “Active”.
In [2], `CCCCCCCCC1OC(=O)C(CSCCNC(=O)CCNC(=O)[C@H](O)C(C)(C)COP(=O)(O)OP(=O)(O)OC[C@H]2O[C@@H](n3cnc4c(N)ncnc43)[C@H](O)[C@@H]2OP(=O)(O)O)C1C(=O)O` (mixture of isomers) registered a concentration for half-maximal inhibition (IC50) of 1.1 µM.
Regarding `CCCCCCCCC1OC(=O)C(CSCCNC(=O)CCNC(=O)[C@H](O)C(C)(C)COP(=O)(O)OP(=O)(O)OC[C@H]2O[C@@H](n3cnc4c(N)ncnc43)[C@H](O)[C@@H]2OP(=O)(O)O)C1CO` (mixture of isomers), the Activity entry with Rattus norvegicus [3] and in the series on Mus musculus [4] was “Non-Toxic” each time. The molecule also registered an IC50 in series [2] of 15.7 µM.
`C=C1C(=O)OC(CCCCCCCC)C1C(=O)O` (racemic): the Activity entry in the series with Mus musculus [5], with Rattus norvegicus [7], with Mus musculus [8] and in the series on Rattus norvegicus [9] was “Toxic” in each case. Also, the inhibition in series [6] came out at 38%. The IC50 stood at 63.2 µM in the series on Fibroblast; 26.8 µM with PC-3; 21.9 µM with OVCAR-3; 43.8 µM in the series with MDA-MB-231; 19.8 µM in the series with SK-BR-3; 46.4 µM with HCT-116. Besides, the results for the half-maximal inhibitory concentration (IC50) in the series with MCF7 and with MIA PaCa-2 were 27.3 µM and 21.8 µM, respectively.

For the origin of these results see ChEMBL document CHEMBL4017443, “(-)-UB006: A new fatty acid synthase inhibitor and cytotoxic agent without anorexic side effects” (Eur J Med Chem, 2017).
